Assays:
cells = assay: apoptosis induction / cell cycle measurements in cells; format: cell-based
[1] = molecular target: MDR-1 gene product P-glycoprotein (Homo sapiens, UniProt P08183); assay: P-glycoprotein-mediated substrate efflux; format: cell-based
Chain of MDR-1 gene product P-glycoprotein (P08183 whole entry): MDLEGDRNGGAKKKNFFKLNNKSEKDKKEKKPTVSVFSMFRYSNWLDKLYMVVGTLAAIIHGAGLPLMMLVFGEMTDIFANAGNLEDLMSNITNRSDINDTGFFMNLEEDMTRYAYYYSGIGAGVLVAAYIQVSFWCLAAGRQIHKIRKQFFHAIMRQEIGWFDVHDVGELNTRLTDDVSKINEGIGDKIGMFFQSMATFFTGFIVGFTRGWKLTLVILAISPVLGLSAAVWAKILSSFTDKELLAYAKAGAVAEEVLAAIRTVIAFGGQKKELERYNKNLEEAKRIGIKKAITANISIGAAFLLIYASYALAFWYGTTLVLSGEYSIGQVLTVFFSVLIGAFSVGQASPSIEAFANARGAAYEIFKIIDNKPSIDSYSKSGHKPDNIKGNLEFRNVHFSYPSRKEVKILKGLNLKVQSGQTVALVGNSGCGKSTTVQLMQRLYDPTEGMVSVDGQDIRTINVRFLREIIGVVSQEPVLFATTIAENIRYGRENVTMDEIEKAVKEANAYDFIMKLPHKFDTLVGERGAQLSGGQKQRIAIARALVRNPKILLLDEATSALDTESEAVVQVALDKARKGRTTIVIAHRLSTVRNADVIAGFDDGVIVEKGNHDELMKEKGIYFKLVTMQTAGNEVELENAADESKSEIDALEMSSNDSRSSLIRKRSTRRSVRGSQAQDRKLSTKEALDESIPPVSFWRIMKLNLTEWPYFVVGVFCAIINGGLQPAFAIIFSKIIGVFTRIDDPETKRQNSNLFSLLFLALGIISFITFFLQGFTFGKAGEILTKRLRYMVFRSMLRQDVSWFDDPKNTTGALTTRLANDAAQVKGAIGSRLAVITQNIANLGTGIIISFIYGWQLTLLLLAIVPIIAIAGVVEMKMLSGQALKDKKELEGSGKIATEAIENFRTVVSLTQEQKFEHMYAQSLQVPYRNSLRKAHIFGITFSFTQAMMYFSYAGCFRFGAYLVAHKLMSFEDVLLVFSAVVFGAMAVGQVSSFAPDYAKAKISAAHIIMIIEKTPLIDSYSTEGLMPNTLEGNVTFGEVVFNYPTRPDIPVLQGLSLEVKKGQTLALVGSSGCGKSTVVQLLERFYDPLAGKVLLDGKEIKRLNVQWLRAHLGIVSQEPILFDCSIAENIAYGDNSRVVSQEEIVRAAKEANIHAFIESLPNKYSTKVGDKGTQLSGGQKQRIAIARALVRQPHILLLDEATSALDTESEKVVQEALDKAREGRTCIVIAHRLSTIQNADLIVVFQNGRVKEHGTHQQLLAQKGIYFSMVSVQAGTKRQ

COc1cc([C@@H]2c3cc4c(cc3[C@@H](O[C@@H]3O[C@@H]5CO[C@@H](C)O[C@H]5[C@H](O)[C@H]3O)[C@H]3COC(=O)[C@H]23)OCO4)cc(OC)c1O [etoposide]
apoptosis is complete after (cells): 48 h
effect on P-glycoprotein [1]: ineffective
retention in cells / efflux [1]: pumped out of the cells

From US10183035B2, “Etoposide and prodrugs thereof for use in targeting cancer stem cells” (CELLACT PHARMA GMBH, priority 2013, dated 2019)
